Experimental data as given in ChEMBL document CHEMBL3352247, “Synthesis and antimycobacterial evaluation of 5-alkylamino-N-phenylpyrazine-2-carboxamides” (Bioorg Med Chem, 2015).
Calls of active or inactive are those of the source. The calls are words filed in the database; no cut-off is given here.

How the values were obtained:
Klebsiella pneumoniae [1] = assay: Antibacterial activity against Klebsiella pneumoniae D 11750/08 clinical isolate after 24 to 48 hrs by broth microdilution method; format: functional, organism-based
Staphylococcus aureus [2] = assay: Antibacterial activity against methicillin-resistant Staphylococcus aureus H 5996/08 clinical isolate after 24 to 48 hrs by broth microdilution method; format: functional, organism-based
Aspergillus fumigatus = assay: Antifungal activity against Aspergillus fumigatus 231 after 24 to 48 hrs by two-fold dilution method; format: functional, organism-based
Enterococcus sp. = assay: Antibacterial activity against Enterococcus sp. J 14365/08 clinical isolate after 24 to 48 hrs by broth microdilution method; format: functional, organism-based
Staphylococcus aureus [3] = assay: Antibacterial activity against Staphylococcus aureus CCM 4516/08 after 24 to 48 hrs by broth microdilution method; format: functional, organism-based
Escherichia coli = assay: Antibacterial activity against Escherichia coli CCM 4517 after 24 to 48 hrs by broth microdilution method; format: functional, organism-based
Candida albicans = assay: Antifungal activity against Candida albicans ATCC 44859 after 24 to 48 hrs by two-fold dilution method; format: functional, organism-based
Klebsiella pneumoniae [4] = assay: Antibacterial activity against ESBL-positive Klebsiella pneumoniae J 14368/08 clinical isolate after 24 to 48 hrs by broth microdilution method; format: functional, organism-based
[5] = system: Trichophyton mentagrophytes; assay: Antifungal activity against Trichophyton mentagrophytes 445 after 72 to 120 hrs by two-fold dilution method; format: functional, organism-based
[6] = Antimycobacterial activity against Mycobacterium avium subsp. avium Chester CNCTC My 80/72 in Middlebrook 7H9 broth after 5 days by AlamarBlue assay; format: functional; details: Chester CNCTC My 80/72, 120 h
Mycobacterium kansasii = assay: Antimycobacterial activity against Mycobacterium kansasii CNCTC My 235/80 in Middlebrook 7H9 broth after 5 days by AlamarBlue assay; format: functional; details: CNCTC My 235/80, 120 h
Nakaseomyces glabratus = assay: Antifungal activity against Candida glabrata 20/I after 24 to 48 hrs by two-fold dilution method; format: functional, organism-based
Lichtheimia corymbifera = assay: Antifungal activity against Absidia corymbifera 272 after 24 to 48 hrs by two-fold dilution method; format: functional, organism-based
Trichosporon asahii = assay: Antifungal activity against Trichosporon asahii 1188 after 24 to 48 hrs by two-fold dilution method; format: functional, organism-based
[7] = system: Mycobacterium tuberculosis; assay: Antimycobacterial activity against Mycobacterium tuberculosis H37Rv CNCTC My 331/88 in Middlebrook 7H9 broth after 5 days by AlamarBlue assay; format: functional; details: H37Rv CNCTC My 331/88, 120 h
[8] = system: Staphylococcus epidermidis; assay: Antibacterial activity against Staphylococcus epidermidis H 6966/08 clinical isolate after 24 to 48 hrs by broth microdilution method; format: functional, organism-based
Pichia kudriavzevii = assay: Antifungal activity against Candida krusei E28 after 24 to 48 hrs by two-fold dilution method; format: functional, organism-based
Candida tropicalis = assay: Antifungal activity against Candida tropicalis 156 after 24 to 48 hrs by two-fold dilution method; format: functional, organism-based
Pseudomonas aeruginosa = assay: Antibacterial activity against Pseudomonas aeruginosa CCM 1961 after 24 to 48 hrs by broth microdilution method; format: functional, organism-based

With O=C(Nc1ccccc1Cl)c1cnc(NCCCCO)cn1 the Activity (Klebsiella pneumoniae [1]) was “inactive”, the Activity (Staphylococcus aureus [2]) was “inactive” and the Activity (Aspergillus fumigatus) was “inactive”. The Activity (Enterococcus sp.) was “inactive”, the Activity (Staphylococcus aureus [3]) was “inactive” and the Activity (Escherichia coli) was “inactive”. For the same molecule, the Activity (Candida albicans) was “inactive”, the Activity (Klebsiella pneumoniae [4]) was “inactive” and the Activity [5] was “inactive”. The MIC [6] was over 100 mg/L, the MIC (Mycobacterium kansasii) was over 100 mg/L and the Activity (Nakaseomyces glabratus) was “inactive”. The Activity (Lichtheimia corymbifera) was “inactive”, the Activity (Trichosporon asahii) was “inactive” and the MIC [7] was over 100 mg/L. The Activity [8] was “inactive”, the Activity (Pichia kudriavzevii) was “inactive” and the Activity (Candida tropicalis) was “inactive”. For the same molecule, the Activity (Pseudomonas aeruginosa) was “inactive”.

For COCCCNc1cnc(C(=O)Nc2ccccc2Cl)cn1, the Activity (Klebsiella pneumoniae [1]) was “inactive”, the Activity (Staphylococcus aureus [2]) was “inactive” and the Activity (Aspergillus fumigatus) was “inactive”. For the same molecule, the Activity (Enterococcus sp.) was “inactive”, the Activity (Staphylococcus aureus [3]) was “inactive” and the Activity (Escherichia coli) was “inactive”. For the same molecule, the Activity (Candida albicans) was “inactive”, the Activity (Klebsiella pneumoniae [4]) was “inactive” and the Activity [5] was “inactive”. The MIC [6] was over 100 mg/L, the MIC (Mycobacterium kansasii) was over 100 mg/L and the Activity (Nakaseomyces glabratus) was “inactive”. The Activity (Lichtheimia corymbifera) was “inactive”, the Activity (Trichosporon asahii) was “inactive” and the MIC [7] was over 100 mg/L. The Activity [8] was “inactive”, the Activity (Pichia kudriavzevii) was “inactive” and the Activity (Candida tropicalis) was “inactive”. For the same molecule, the Activity (Pseudomonas aeruginosa) was “inactive”.

With Nc1cnc(C(=O)Nc2ccccc2)cn1 the Activity (Klebsiella pneumoniae [1]) was “inactive”, the Activity (Staphylococcus aureus [2]) was “inactive” and the Activity (Aspergillus fumigatus) was “inactive”. For the same molecule, the Activity (Enterococcus sp.) was “inactive”, the Activity (Staphylococcus aureus [3]) was “inactive” and the Activity (Escherichia coli) was “inactive”. For the same molecule, the Activity (Candida albicans) was “inactive”, the Activity (Klebsiella pneumoniae [4]) was “inactive” and the Activity [5] was “inactive”. The MIC [6] was over 100 mg/L, the MIC (Mycobacterium kansasii) was over 100 mg/L and the Activity (Nakaseomyces glabratus) was “inactive”. For the same molecule, the Activity (Lichtheimia corymbifera) was “inactive”, the Activity (Trichosporon asahii) was “inactive” and the MIC [7] was over 100 mg/L. The Activity [8] was “inactive”, the Activity (Pichia kudriavzevii) was “inactive” and the Activity (Candida tropicalis) was “inactive”. The Activity (Pseudomonas aeruginosa) was “inactive”.

For O=C(Nc1ccccc1Cl)c1cnc(NCCCCCO)cn1, the Activity (Klebsiella pneumoniae [1]) was “inactive”, the Activity (Staphylococcus aureus [2]) was “inactive” and the Activity (Aspergillus fumigatus) was “inactive”. The Activity (Enterococcus sp.) was “inactive”, the Activity (Staphylococcus aureus [3]) was “inactive” and the Activity (Escherichia coli) was “inactive”. The Activity (Candida albicans) was “inactive”, the Activity (Klebsiella pneumoniae [4]) was “inactive” and the Activity [5] was “inactive”. The MIC [6] was over 100 mg/L, the MIC (Mycobacterium kansasii) was over 100 mg/L and the Activity (Nakaseomyces glabratus) was “inactive”. For the same molecule, the Activity (Lichtheimia corymbifera) was “inactive”, the Activity (Trichosporon asahii) was “inactive” and the MIC [7] was over 100 mg/L. The Activity [8] was “inactive”, the Activity (Pichia kudriavzevii) was “inactive” and the Activity (Candida tropicalis) was “inactive”. The Activity (Pseudomonas aeruginosa) was “inactive”.

With O=C(Nc1ccccc1)c1cnc(NCCc2ccccc2)cn1 the Activity (Klebsiella pneumoniae [1]) was “inactive”, the Activity (Staphylococcus aureus [2]) was “inactive” and the Activity (Aspergillus fumigatus) was “inactive”. The Activity (Enterococcus sp.) was “inactive”, the Activity (Staphylococcus aureus [3]) was “inactive” and the Activity (Escherichia coli) was “inactive”. The Activity (Candida albicans) was “inactive”, the Activity (Klebsiella pneumoniae [4]) was “inactive” and the Activity [5] was “inactive”. For the same molecule, the MIC [6] was over 100 mg/L, the MIC (Mycobacterium kansasii) was over 100 mg/L and the Activity (Nakaseomyces glabratus) was “inactive”. The Activity (Lichtheimia corymbifera) was “inactive”, the Activity (Trichosporon asahii) was “inactive” and the MIC [7] was 39.3 µM. The Activity [8] was “inactive”, the Activity (Pichia kudriavzevii) was “inactive” and the Activity (Candida tropicalis) was “inactive”. For the same molecule, the Activity (Pseudomonas aeruginosa) was “inactive”.

For O=C(Nc1ccccc1Cl)c1cnc(NCCCc2ccccc2)cn1, the Activity (Klebsiella pneumoniae [1]) was “inactive”, the Activity (Staphylococcus aureus [2]) was “inactive” and the Activity (Aspergillus fumigatus) was “inactive”. For the same molecule, the Activity (Enterococcus sp.) was “inactive”, the Activity (Staphylococcus aureus [3]) was “inactive” and the Activity (Escherichia coli) was “inactive”. The Activity (Candida albicans) was “inactive”, the Activity (Klebsiella pneumoniae [4]) was “inactive” and the Activity [5] was “inactive”. For the same molecule, the MIC [6] was over 100 mg/L, the MIC (Mycobacterium kansasii) was over 100 mg/L and the Activity (Nakaseomyces glabratus) was “inactive”. The Activity (Lichtheimia corymbifera) was “inactive”, the Activity (Trichosporon asahii) was “inactive” and the MIC [7] was over 100 mg/L. For the same molecule, the Activity [8] was “inactive”, the Activity (Pichia kudriavzevii) was “inactive” and the Activity (Candida tropicalis) was “inactive”. For the same molecule, the Activity (Pseudomonas aeruginosa) was “inactive”.

For COCCNc1cnc(C(=O)Nc2ccccc2)cn1, the Activity (Klebsiella pneumoniae [1]) was “inactive”, the Activity (Staphylococcus aureus [2]) was “inactive” and the Activity (Aspergillus fumigatus) was “inactive”. The Activity (Enterococcus sp.) was “inactive”, the Activity (Staphylococcus aureus [3]) was “inactive” and the Activity (Escherichia coli) was “inactive”. For the same molecule, the Activity (Candida albicans) was “inactive”, the Activity (Klebsiella pneumoniae [4]) was “inactive” and the Activity [5] was “inactive”. The MIC [6] was over 100 mg/L, the MIC (Mycobacterium kansasii) was over 100 mg/L and the Activity (Nakaseomyces glabratus) was “inactive”. For the same molecule, the Activity (Lichtheimia corymbifera) was “inactive”, the Activity (Trichosporon asahii) was “inactive” and the MIC [7] was 184 µM. For the same molecule, the Activity [8] was “inactive”, the Activity (Pichia kudriavzevii) was “inactive” and the Activity (Candida tropicalis) was “inactive”. For the same molecule, the Activity (Pseudomonas aeruginosa) was “inactive”.

For O=C(Nc1ccccc1Cl)c1cnc(NCCCO)cn1, the Activity (Klebsiella pneumoniae [1]) was “inactive”, the Activity (Staphylococcus aureus [2]) was “inactive” and the Activity (Aspergillus fumigatus) was “inactive”. The Activity (Enterococcus sp.) was “inactive”, the Activity (Staphylococcus aureus [3]) was “inactive” and the Activity (Escherichia coli) was “inactive”. The Activity (Candida albicans) was “inactive”, the Activity (Klebsiella pneumoniae [4]) was “inactive” and the Activity [5] was “inactive”. For the same molecule, the MIC [6] was over 100 mg/L, the MIC (Mycobacterium kansasii) was over 100 mg/L and the Activity (Nakaseomyces glabratus) was “inactive”. For the same molecule, the Activity (Lichtheimia corymbifera) was “inactive”, the Activity (Trichosporon asahii) was “inactive” and the MIC [7] was over 100 mg/L. For the same molecule, the Activity [8] was “inactive”, the Activity (Pichia kudriavzevii) was “inactive” and the Activity (Candida tropicalis) was “inactive”. The Activity (Pseudomonas aeruginosa) was “inactive”.

In the case of COCCNc1cnc(C(=O)Nc2ccccc2Cl)cn1, the Activity (Klebsiella pneumoniae [1]) is reported as “inactive”, the Activity (Staphylococcus aureus [2]) is reported as “inactive” and the Activity (Aspergillus fumigatus) is reported as “inactive”. The Activity (Enterococcus sp.) was “inactive”, the Activity (Staphylococcus aureus [3]) was “inactive” and the Activity (Escherichia coli) was “inactive”. The Activity (Candida albicans) was “inactive”, the Activity (Klebsiella pneumoniae [4]) was “inactive” and the Activity [5] was “inactive”. The MIC [6] was over 100 mg/L, the MIC (Mycobacterium kansasii) was over 100 mg/L and the Activity (Nakaseomyces glabratus) was “inactive”. For the same molecule, the Activity (Lichtheimia corymbifera) was “inactive”, the Activity (Trichosporon asahii) was “inactive” and the MIC [7] was over 100 mg/L. The Activity [8] was “inactive”, the Activity (Pichia kudriavzevii) was “inactive” and the Activity (Candida tropicalis) was “inactive”. The Activity (Pseudomonas aeruginosa) was “inactive”.

For O=C(Nc1ccccc1Cl)c1cnc(NCCO)cn1, the Activity (Klebsiella pneumoniae [1]) was “inactive”, the Activity (Staphylococcus aureus [2]) was “inactive” and the Activity (Aspergillus fumigatus) was “inactive”. The Activity (Enterococcus sp.) was “inactive”, the Activity (Staphylococcus aureus [3]) was “inactive” and the Activity (Escherichia coli) was “inactive”. The Activity (Candida albicans) was “inactive”, the Activity (Klebsiella pneumoniae [4]) was “inactive” and the Activity [5] was “inactive”. For the same molecule, the MIC [6] was over 100 mg/L, the MIC (Mycobacterium kansasii) was over 100 mg/L and the Activity (Nakaseomyces glabratus) was “inactive”. For the same molecule, the Activity (Lichtheimia corymbifera) was “inactive”, the Activity (Trichosporon asahii) was “inactive” and the MIC [7] was over 100 mg/L. The Activity [8] was “inactive”, the Activity (Pichia kudriavzevii) was “inactive” and the Activity (Candida tropicalis) was “inactive”. For the same molecule, the Activity (Pseudomonas aeruginosa) was “inactive”.

For O=C(Nc1ccccc1Cl)c1cnc(NCCc2ccccc2)cn1, the Activity (Klebsiella pneumoniae [1]) was “inactive”, the Activity (Staphylococcus aureus [2]) was “inactive” and the Activity (Aspergillus fumigatus) was “inactive”. For the same molecule, the Activity (Enterococcus sp.) was “inactive”, the Activity (Staphylococcus aureus [3]) was “inactive” and the Activity (Escherichia coli) was “inactive”. The Activity (Candida albicans) was “inactive”, the Activity (Klebsiella pneumoniae [4]) was “inactive” and the Activity [5] was “inactive”. The MIC [6] was over 100 mg/L, the MIC (Mycobacterium kansasii) was over 100 mg/L and the Activity (Nakaseomyces glabratus) was “inactive”. For the same molecule, the Activity (Lichtheimia corymbifera) was “inactive”, the Activity (Trichosporon asahii) was “inactive” and the MIC [7] was over 100 mg/L. For the same molecule, the Activity [8] was “inactive”, the Activity (Pichia kudriavzevii) was “inactive” and the Activity (Candida tropicalis) was “inactive”. For the same molecule, the Activity (Pseudomonas aeruginosa) was “inactive”.
